The results in this text go back to patent US12195429B2, “Cannabinoid derivatives” (CANOPY GROWTH CORPORATION, priority 2019, dated 2025).

The IC50 is the point on the concentration scale where inhibition reaches its midpoint.

Structures are written as SMILES. Bounds are passed on as bounds.

The target in one experiment is T1, human CB2 receptor (Homo sapiens, UniProt P34972).
T1 construct: host or cells: CHO-K1
Description: CB2 radioligand competitive binding assay ([3H]CP 55,940 displacement). The note with it: for Selectivity CB2: fold difference in binding affinity, CB2 over CB1, 1.00 = about the same affinity for both receptors.

Experiment [1] has as its target T2, human CB1 receptor (Homo sapiens, UniProt P21554).
T2 construct: host or cells: CHO-K1
Description: PathHunter β-arrestin functional assay, CB1 receptor, antagonist mode. It counts as cell-based.

Experiment [2] concerns the target T2, human CB1 receptor. Description: CB1 radioligand competitive binding assay ([3H]CP 55,940 displacement). The settings on record: for Selectivity CB1: fold difference in binding affinity, CB1 over CB2, 1.00 = about the same affinity for both receptors.
Experiment [3] concerns the target T2, human CB1 receptor. Description: PathHunter β-arrestin functional assay, CB1 receptor, agonist mode. It counts as cell-based. The settings on record: PathHunter CHO-K1 CNR1 β-arrestin cells; normalized to CP55,940.
Where [4] appears, read: read-out: IC50 towards human CB1 receptor, antagonist mode.

T2 sequence (P21554 whole entry): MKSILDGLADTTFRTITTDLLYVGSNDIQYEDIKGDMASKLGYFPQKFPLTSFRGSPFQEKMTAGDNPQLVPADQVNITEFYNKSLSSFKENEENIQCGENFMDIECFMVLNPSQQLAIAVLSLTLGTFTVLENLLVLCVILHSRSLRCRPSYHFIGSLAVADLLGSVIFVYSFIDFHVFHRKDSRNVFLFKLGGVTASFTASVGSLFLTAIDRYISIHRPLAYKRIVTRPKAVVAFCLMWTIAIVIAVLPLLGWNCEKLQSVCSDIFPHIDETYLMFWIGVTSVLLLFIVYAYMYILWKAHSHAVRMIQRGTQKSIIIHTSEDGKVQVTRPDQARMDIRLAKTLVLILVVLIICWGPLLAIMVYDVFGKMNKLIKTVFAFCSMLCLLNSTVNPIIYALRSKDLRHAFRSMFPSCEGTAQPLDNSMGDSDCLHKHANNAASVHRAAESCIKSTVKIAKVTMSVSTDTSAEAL
T1 sequence (P34972 whole entry): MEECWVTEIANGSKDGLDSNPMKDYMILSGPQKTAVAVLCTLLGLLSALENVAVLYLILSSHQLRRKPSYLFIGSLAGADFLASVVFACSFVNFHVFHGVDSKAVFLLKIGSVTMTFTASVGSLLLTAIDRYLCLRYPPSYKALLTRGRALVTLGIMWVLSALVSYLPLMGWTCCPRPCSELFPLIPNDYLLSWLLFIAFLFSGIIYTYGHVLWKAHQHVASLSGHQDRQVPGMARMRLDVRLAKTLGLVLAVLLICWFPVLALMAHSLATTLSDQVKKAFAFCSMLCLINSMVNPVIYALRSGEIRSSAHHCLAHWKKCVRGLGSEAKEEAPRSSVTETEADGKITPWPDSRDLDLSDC

Regarding `CCCCCc1cc(O)c(C2C=C(C)CCC2)c(O)c1-c1nnn[nH]1` (centres unmarked) [Compound 3c, 5′-methyl-4-pentyl-3-(1H-tetrazol-5-yl)-1′,2′,3′,4′-tetrahydro-[1,1′-biphenyl]-2,6-diol], the IC50 at human CB2 receptor was 1 to 4.99 µM; on human CB1 receptor [1] (setting [4]), 1 to 3 µM; at human CB1 receptor [2] it was 1 to 4.99 µM.

`C=C(C)[C@@H]1CCC(C)=C[C@H]1c1c(O)cc(CCCCC)c(-c2nnn[nH]2)c1O` [Compound 3d, 5′-methyl-4-pentyl-2′-(prop-1-en-2-yl)-3-(1H-tetrazol-5-yl)-1′,2′,3′,4′-tetrahydro-[1,1′-biphenyl]-2,6-diol]: at human CB2 receptor, the IC50 lay in the range of 1 to 4.99 µM and the “Selectivity CB2” value amounted to 1.00 fold. At human CB1 receptor [2], the IC50 is 1 to 4.99 µM and the “Selectivity CB1” value came to 1.00 fold.

With `CCCCCc1cc(O)c(C2C=C(C)CCC2)c(O)c1-c1cccnc1` (centres unmarked) [Compound 12c, 5′-methyl-4-pentyl-3-(pyridin-3-yl)-1′,2′,3′,4′-tetrahydro-[1,1′-biphenyl]-2,6-diol], at human CB2 receptor, the IC50 is 0.5 to 0.99 µM and the “Selectivity CB2” value is recorded as 7.27 fold. Also, on human CB1 receptor [2], the IC50 is more than 5 µM.

`C=C(C)[C@@H]1CCC(C)=C[C@H]1c1c(O)cc(CCCCC)c(-c2cccnc2)c1O` [Compound 12d, 5′-methyl-4-pentyl-2′-(prop-1-en-2-yl)-3-(pyridin-3-yl)-1′,2′,3′,4′-tetrahydro-[1,1′-biphenyl]-2,6-diol]: the IC50 at human CB2 receptor and on human CB1 receptor [2] was 1 to 4.99 µM each time. Besides, the “Selectivity CB2” value at human CB2 receptor was 1.39 fold.

With `CCCCCc1cc(O)c(C2C=C(C)CCC2)c(O)c1-c1cncnc1` (centres unmarked) [Compound 13c, 5′-methyl-4-pentyl-3-(pyrimidin-5-yl)-1′,2′,3′,4′-tetrahydro-[1,1′-biphenyl]-2,6-diol], the 50% inhibitory concentration (IC50) at human CB2 receptor and on human CB1 receptor [2] was 1 to 4.99 µM throughout.

For `C=C(C)[C@@H]1CCC(C)=C[C@H]1c1c(O)cc(CCCCC)c(-c2cncnc2)c1O` [Compound 13d, 5′-methyl-4-pentyl-2′-(prop-1-en-2-yl)-3-(pyrimidin-5-yl)-1′,2′,3′,4′-tetrahydro-[1,1′-biphenyl]-2,6-diol], the IC50 on human CB2 receptor and on human CB1 receptor [2] was 1 to 4.99 µM in each case. Moreover, the “Selectivity CB2” value on human CB2 receptor came out at 2.35 fold.

`C=C(C)[C@@H]1CCC(C)=C[C@H]1c1c(O)cc(CCCCC)c(-c2ccncc2)c1O` [Compound 14d, 5′-methyl-4-pentyl-2′-(prop-1-en-2-yl)-3-(pyridin-4-yl)-1′,2′,3′,4′-tetrahydro-[1,1′-biphenyl]-2,6-diol]: on human CB2 receptor, the IC50 lay within 1 to 4.99 µM and the “Selectivity CB2” value was determined as 1.00 fold. Further, on human CB1 receptor [2], the IC50 is 1 to 4.99 µM and the “Selectivity CB1” value is given as 1.00 fold.

`CCCCCc1cc(O)c(C2C=C(C)CCC2)c(O)c1-c1ccco1` (centres unmarked) [Compound 15c, 3-(furan-2-yl)-5′-methyl-4-pentyl-1′,2′,3′,4′-tetrahydro-[1,1′-biphenyl]-2,6-diol]: the values for the IC50 on human CB2 receptor, at human CB1 receptor [1] (setting [4]) and on human CB1 receptor [2] were 1 to 4.99 µM, 1 to 3 µM and 1 to 4.99 µM, respectively.

Regarding `C=C(C)[C@@H]1CCC(C)=C[C@H]1c1c(O)cc(CCCCC)c(-c2ccco2)c1O` [Compound 15d, 3-(furan-2-yl)-5′-methyl-4-pentyl-2′-(prop-1-en-2-yl)-1′,2′,3′,4′-tetrahydro-[1,1′-biphenyl]-2,6-diol], on human CB2 receptor, the IC50 lay within 1 to 4.99 µM and the “Selectivity CB2” value turned out to be 3.57 fold. Besides, the IC50 on human CB1 receptor [2] is more than 5 µM.

As for `CCCCCc1cc(O)c(C2C=C(C)CCC2)c(O)c1-c1cccs1` (centres unmarked) [Compound 16c, 5′-methyl-4-pentyl-3-(thiophen-2-yl)-1′,2′,3′,4′-tetrahydro-[1,1′-biphenyl]-2,6-diol], the IC50 at human CB2 receptor lay within 0.5 to 0.99 µM; at human CB1 receptor [1] (setting [4]), 1 to 3 µM; on human CB1 receptor [2], 1 to 4.99 µM. In addition, the “Selectivity CB2” value at human CB2 receptor is recorded as 2.22 fold. For the same molecule, at human CB1 receptor [3], the “activity towards the human CB1 receptor, agonist mode” value is listed as “minimal to no activity”.

Turning to `C=C(C)[C@@H]1CCC(C)=C[C@H]1c1c(O)cc(CCCCC)c(-c2cccs2)c1O` [Compound 16d], the IC50 at human CB2 receptor was less than 0.5 µM; on human CB1 receptor [2], 1 to 4.99 µM. Further, the “Selectivity CB2” value on human CB2 receptor was found to be 7.50 fold.

Take `CCCCCc1cc(O)c(C2C=C(C)CCC2)c(O)c1-c1ccsc1` (centres unmarked) [Compound 17c, 5′-methyl-4-pentyl-3-(thiophen-3-yl)-1′,2′,3′,4′-tetrahydro-[1,1′-biphenyl]-2,6-diol]: the figures for the IC50 on human CB2 receptor, on human CB1 receptor [1] (setting [4]) and at human CB1 receptor [2] were 1 to 4.99 µM, 1 to 3 µM and 1 to 4.99 µM, respectively.

Regarding `C=C(C)[C@@H]1CCC(C)=C[C@H]1c1c(O)cc(CCCCC)c(-c2ccsc2)c1O` [Compound 17d], the IC50 at human CB2 receptor was less than 0.5 µM; at human CB1 receptor [1] it was 1 to 3 µM; at human CB1 receptor [2] it was 1 to 4.99 µM. Also, at human CB2 receptor, the “Selectivity CB2” value was found to be 33.33 fold. The “activity towards the human CB1 receptor, agonist mode” value at human CB1 receptor [3] is recorded as “minimal to no activity”.

With `C=C(C)[C@@H]1CCC(C)=C[C@H]1c1c(O)cc(CCCCC)c(-c2ccnn2C)c1O` [Compound 33d, 5′-methyl-3-(1-methyl-1H-pyrazol-5-yl)-4-pentyl-2′-(prop-1-en-2-yl)-1′,2′,3′,4′-tetrahydro-[1,1′-biphenyl]-2,6-diol], at human CB2 receptor, the IC50 fell in the range of 1 to 4.99 µM and the “Selectivity CB2” value came to 1.00 fold. In addition, at human CB1 receptor [2], the IC50 lay in the range of 1 to 4.99 µM and the “Selectivity CB1” value was determined as 1.00 fold.

`C=C(C)[C@@H]1CCC(C)=C[C@H]1c1c(O)cc(CCCCC)c(-c2cc3ccccc3s2)c1O` [Compound 34d, 4-(benzothiophen-2-yl)-2-[6-isopropenyl-3-methyl-cyclohez-2-en-1-yl]-5-pentyl-benzene-1,3-diol]: the figures for the IC50 on human CB2 receptor, on human CB1 receptor [1] (setting [4]) and at human CB1 receptor [2] were less than 0.5 µM, 1 to 3 µM and 1 to 4.99 µM, respectively. Also, the “Selectivity CB2” value on human CB2 receptor turned out to be 7.22 fold. For the same molecule, the “activity towards the human CB1 receptor, agonist mode” value at human CB1 receptor [3] is listed as “minimal to no activity”.

With `C=C(C)[C@@H]1CCC(C)=C[C@H]1c1c(O)cc(CCCCC)c(-c2ccnc(C)c2)c1O` [Compound 35d, 2-(6-isopropenyl-3-methyl-cyclohex-2-en-1-yl)-4-(2-methyl-4-pyridyl)-5-pentyl-benzene-1,3-diol], at human CB2 receptor, the IC50 lay in the range of 1 to 4.99 µM and the “Selectivity CB2” value is recorded as 1.60 fold. Moreover, the IC50 at human CB1 receptor [2] lay within 1 to 4.99 µM.

For the molecule `C=C(C)[C@@H]1CCC(C)=C[C@H]1c1c(O)cc(CCCCC)c(-c2c(C)noc2C)c1O` [Compound 36d, 3-(3,5-dimethylisoxazol-4-yl)-5′-methyl-4-pentyl-2′-(prop-1-en-2-yl)-1′,2′,3′,4′-tetrahydro-[1,1′-biphenyl]-2,6-diol], the IC50 on human CB2 receptor was in the range of 1 to 4.99 µM. For the same molecule, on human CB1 receptor [2], the IC50 is 1 to 4.99 µM and the “Selectivity CB1” value is listed as 2.22 fold.

With `CCCCCc1cc(OC)c(C2C=C(C)CCC2)c(OC)c1-c1cccc(N2CCOCC2)c1` (centres unmarked) [Compound 38c, 4-(2′,4′-dimethoxy-5″-methyl-6′-pentyl-1″,2″,3″,4″-tetrahydro-[1,1′:3′,1″-terphenyl]-3-yl)morpholine], on human CB2 receptor, the IC50 is less than 0.5 µM and the “Selectivity CB2” value amounted to 19.05 fold. The IC50 at human CB1 receptor [2] was less than 0.5 µM.

`CCCCCc1cc(OC)c(C2C=C(C)CCC2)c(OC)c1-c1cccnc1` (centres unmarked) [Compound 39c, 3-(2,6-dimethoxy-5′-methyl-4-pentyl-1′,2′,3′,4′-tetrahydro-[1,1′-biphenyl]-3-yl)pyridine]: at human CB2 receptor, the IC50 was more than 5 µM and the “Selectivity CB2” value came out at 1.47 fold. This molecule yielded an IC50 on human CB1 receptor [2] of more than 5 µM.

Consider `CCCCCc1cc(OC)c(C2C=C(C)CCC2)c(OC)c1-c1ccccc1` (centres unmarked) [Compound 40c, 2′,6′-dimethoxy-5-methyl-4′-pentyl-1,2,3,4-tetrahydro-1,1′:3′,1″-terphenyl], for which the IC50 is 1 to 4.99 µM at human CB2 receptor and more than 5 µM on human CB1 receptor [2]. In addition, the “Selectivity CB2” value on human CB2 receptor is listed as 1.79 fold.

With `C=C(C)[C@@H]1CCC(C)=C[C@H]1c1c(O)cc(CCCCC)c(-c2cn[nH]c2)c1O` [Compound 41d, 5′-methyl-4-pentyl-2′-(prop-1-en-2-yl)-3-(1H-pyrazol-4-yl)-1′,2′,3′,4′-tetrahydro-[1,1′-biphenyl]-2,6-diol], at human CB2 receptor, the IC50 was in the range of 1 to 4.99 µM and the “Selectivity CB2” value came out at 1.60 fold. The molecule also came in with an IC50 at human CB1 receptor [2] of 1 to 4.99 µM.
